Earlier results in paper PMC4282593 (Cancer chemotherapy and pharmacology, 2014).

System: recurrent/refractory NBs
Details: ref [23]

Structure (SMILES): C[C@]12O[C@H](C[C@]1(O)CO)n1c3ccccc3c3c4c(c5c6ccccc6n2c5c31)CNC4=O [lestaurtinib]
- patients with durable responses (8/16 patients treated at a biologically effective dose): 50%
- side effects (Phase 1 clinical trial in NB patients): limited to mild, including reversible liver transaminase elevations
- duration of durable responses, on average (patients treated at a biologically effective dose): more than 10 months
